Publication PMC7162534 (ACS nano, 2020)
Like-named read-outs stand apart in the source and are kept apart here.

Legend:
[1] = molecular target: maltose-binding protein (MBP) (Escherichia coli, UniProt P0AEX9); design: species or system E. coli; conditions: for frequency of state 1 / frequency of state 2 / frequency of state 3: 1 μM maltose; for current signal of trapped MBP on addition of the sugar: added to the cis chamber
[2] = cited from earlier work
MBP = MBP (Escherichia coli, UniProt P0AEX9); conditions: read-out: Kd, previously determined value; cited from earlier work
[3] = 10 μM sodium phosphate, before depletion of α-maltose
[4] = after depletion of α-maltose by 0.25 unit maltose phosphorylase
[5] = in the presence of ligand, −80 mV
[6] = assumption that state 3 represents MBP bound to an aldehyde intermediate
[7] = state 1, β anomer, −80 mV, pH 7.5
[8] = state 2, α anomer, −80 mV, pH 7.5
[9] = state 3, β anomer (second binding mode), −80 mV, pH 7.5

Question: Which results are given for `OC[C@H]1O[C@H](O[C@H]2[C@H](O)[C@@H](O)[C@H](O)O[C@@H]2CO)[C@H](O)[C@@H](O)[C@@H]1O` [Maltose, maltose]?
Answer: frequency of state 1 [1, 3]: 4.28 ± 0.57 s⁻¹; frequency of state 2 [1, 3]: 0.18 ± 0.17 s⁻¹; frequency of state 1 [1, 4]: 5.59 ± 0.89 s⁻¹; frequency of state 2 [1, 4]: 0 s⁻¹; frequency of state 3 ([1]; after the depletion of α-maltose): 0.01 ± 0.02 s⁻¹; frequency of state 3 ([1]; before the depletion of α-maltose): 0.05 ± 0.04 s⁻¹; residual current, state 0 [1, 5]: 56.5 ± 0.4%; residual current, state 1 [1, 5]: 54.0 ± 0.4%; residual current, state 2 [1, 5]: 52.0 ± 0.4%; residual current, state 3 [1, 5]: 51.1 ± 0.4%

Question: With `O=C[C@H](O)[C@@H](O)[C@H](O[C@H]1O[C@H](CO)[C@@H](O)[C@H](O)[C@H]1O)[C@H](O)CO` [aldehyde intermediate] as the compound, how does the Kd [1, 6] read?
Answer: Its Kd is 0.019 nM.

Question: What about the koff [1, 6] of the same compound?
Answer: Its koff is 1.3 ± 0.5 s⁻¹.

Question: And the kon [1, 6]?
Answer: Its kon is 6.9 ± 2.8 × 10^10 M^−1s^−1.

Question: For `OC[C@H]1O[C@H](O[C@H]2[C@H](O)[C@@H](O)[C@@H](O[C@H]3[C@H](O)[C@@H](O)[C@@H](O[C@H]4[C@H](O)[C@@H](O)C(O)O[C@@H]4CO)O[C@@H]3CO)O[C@@H]2CO)[C@H](O)[C@@H](O)[C@@H]1O` (some centres unmarked) [maltotetraose], which “current signal of trapped MBP on addition of the sugar” value (shortened to “current signal of trapped MBP”) ([1]; −80 mV) is on record?
Answer: The value was “three ligand-bound current levels similar to those of maltose and maltotriose”.

Question: With `OC[C@H]1O[C@@](CO)(O[C@H]2O[C@H](CO)[C@@H](O)[C@H](O)[C@H]2O)[C@@H](O)[C@@H]1O` [sucrose] as the compound, how does the “current signal of trapped MBP” value ([1]; −80 mV) read?
Answer: Its value is “no signal change”.

Question: With `OC[C@H]1O[C@H](O[C@H]2[C@H](O)[C@@H](O)[C@@H](O)O[C@@H]2CO)[C@H](O)[C@@H](O)[C@@H]1O` [α-maltose] as the compound, how does the “rate constant of spontaneous interconversion between α-maltose and β-maltose” value [2] read?
Answer: Its value is ~ 0.009 min^−1.

Question: With `OC[C@H]1O[C@@H]2O[C@H]3[C@H](O)[C@@H](O)[C@@H](O[C@H]4[C@H](O)[C@@H](O)[C@@H](O[C@H]5[C@H](O)[C@@H](O)[C@@H](O[C@H]6[C@H](O)[C@@H](O)[C@@H](O[C@H]7[C@H](O)[C@@H](O)[C@@H](O[C@H]8[C@H](O)[C@@H](O)[C@@H](O[C@H]1[C@H](O)[C@H]2O)O[C@@H]8CO)O[C@@H]7CO)O[C@@H]6CO)O[C@@H]5CO)O[C@@H]4CO)O[C@@H]3CO` [β-cyclodextrin] as the compound, how does the “current signal of trapped MBP” value ([1]; −80 mV) read?
Answer: The value was “one major current level similar to state 1 of maltose”.

Question: What does the source list for maltotriose?
Answer: current signal of trapped MBP on addition of the sugar ([1]; −80 mV): four states that were almost identical to the states seen with maltose; Kd ([1]; state 1, β anomer, −80 mV, 150 mM NaCl, 15 mM Tris-HCl, pH 7.5): 120 nM; koff [1, 7]: 4.8 ± 0.3 s⁻¹; kon [1, 7]: 40.8 ± 0.1 µM⁻¹ s⁻¹; association rate of major β-anomer binding state relative to α-anomer ([1]; state 1 versus state 2): more than 3 times; Kd [1, 8]: 240 ± 10 nM; koff [1, 8]: 1.6 ± 0.1 s⁻¹; kon [1, 8]: 6.6 ± 0.1 µM⁻¹ s⁻¹; Kd [1, 9]: 380 ± 20 nM; koff [1, 9]: 1.9 ± 0.4 s⁻¹; kon [1, 9]: 5.0 ± 0.2 µM⁻¹ s⁻¹; Kd (MBP): 160 to 700 nM
